Reference: publication PMC7838034 (Acta Pharmaceutica Sinica. B, 2020)

What was measured:
[1] = molecular target: recombinant BRD4(BD1 + BD2) (Homo sapiens, UniProt O60885); experiment: BRD4 inhibition assay; type: binding; conditions: tested in duplicate, average; for inhibition at 1 µM: read-out: Inhibition rate BRD4, 1 μmol/L; for inhibition at 10 µM: read-out: Inhibition rate BRD4, 10 μmol/L
PARP1 = PARP1 (Homo sapiens, UniProt P09874); experiment: PARP1 inhibition assay; type: biochemical; conditions: tested in duplicate, average; for inhibition at 1 µM: read-out: Inhibition rate PARP1, 1 μmol/L; for inhibition at 10 µM: read-out: Inhibition rate PARP1, 10 μmol/L
MDA-MB-468 cells = experiment: Cell viability assay; type: cell-based, human; conditions: Homo sapiens, MDA-MB-468, 24 h, read-out: Anti-proliferative activity (IC50)

Chain of PARP1 (P09874 whole entry): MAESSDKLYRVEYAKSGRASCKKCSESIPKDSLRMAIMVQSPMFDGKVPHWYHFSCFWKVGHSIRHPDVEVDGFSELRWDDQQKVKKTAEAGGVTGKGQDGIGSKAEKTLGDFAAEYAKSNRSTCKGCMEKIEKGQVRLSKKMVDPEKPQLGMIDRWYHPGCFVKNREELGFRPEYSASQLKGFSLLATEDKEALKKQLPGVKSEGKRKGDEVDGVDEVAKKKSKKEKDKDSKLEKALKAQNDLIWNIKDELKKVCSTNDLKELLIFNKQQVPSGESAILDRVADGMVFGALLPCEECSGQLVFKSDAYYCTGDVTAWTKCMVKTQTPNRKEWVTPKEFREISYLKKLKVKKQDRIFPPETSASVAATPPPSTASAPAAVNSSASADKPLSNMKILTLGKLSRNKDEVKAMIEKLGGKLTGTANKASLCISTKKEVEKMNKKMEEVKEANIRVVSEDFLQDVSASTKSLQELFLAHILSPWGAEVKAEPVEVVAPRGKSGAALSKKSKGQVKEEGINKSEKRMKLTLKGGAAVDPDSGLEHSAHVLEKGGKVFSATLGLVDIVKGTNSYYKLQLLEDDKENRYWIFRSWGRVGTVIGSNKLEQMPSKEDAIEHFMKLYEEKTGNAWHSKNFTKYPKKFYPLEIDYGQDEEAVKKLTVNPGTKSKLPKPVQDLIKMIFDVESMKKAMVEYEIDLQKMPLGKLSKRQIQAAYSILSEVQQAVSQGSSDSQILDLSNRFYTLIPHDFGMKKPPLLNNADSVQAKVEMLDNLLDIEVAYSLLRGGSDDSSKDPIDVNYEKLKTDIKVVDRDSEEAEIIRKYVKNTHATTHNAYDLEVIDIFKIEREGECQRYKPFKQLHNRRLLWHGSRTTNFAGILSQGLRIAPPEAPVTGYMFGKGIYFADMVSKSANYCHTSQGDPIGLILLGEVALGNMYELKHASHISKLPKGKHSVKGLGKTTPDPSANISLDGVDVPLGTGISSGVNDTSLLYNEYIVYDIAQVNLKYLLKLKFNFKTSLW

| Compound | inhibition at 1 µM [1] [%] | inhibition at 1 µM (PARP1) [%] | inhibition at 10 µM [1] [%] | IC50 (MDA-MB-468 cells) [µM] | inhibition at 10 µM (PARP1) [%] | Inhibition rate BRD4 ([1]; 1 μmol/L) [%] | Inhibition rate BRD4 ([1]; 10 μmol/L) [%] | Inhibition rate PARP1 (PARP1; 1 μmol/L) [%] | Inhibition rate PARP1 (PARP1; 10 μmol/L) [%] |
| --- | --- | --- | --- | --- | --- | --- | --- | --- | --- |
| COc1cc(OC)c2c(=O)[nH]c(-c3c[nH]c4ncccc34)nc2c1 [Compound 5i, 5,7-Dimethoxy-2-(1H-pyrrolo[2,3-b]pyridin-3-yl)quinazolin-4(3H)-one] | – | 8 | – | – | – | – | – | – | – |
| COc1cc(OC)c2c(=O)[nH]c(-c3cc(Cl)ccc3OCCCCOc3ccccc3C(N)=O)nc2c1 [Compound 19c, 2-(4-(4-Chloro-2-(5,7-dimethoxy-4-oxo-3,4-dihydroquinazolin-2-yl)phenoxy)butoxy)benzamide] | 7 | 29 | 54 | 7.4 ± 1.8 | 84 | – | – | – | – |
| O=c1[nH]c(-c2ccc(N3CCOCC3)cc2)nc2ccccc12 [Compound 5f, 2-(4-Morpholinophenyl)quinazolin-4(3H)-one] | 12 | 0 | 55 | – | 29 | – | – | – | – |
| O=C(c1cc(Cc2n[nH]c(=O)c3ccccc23)ccc1F)N1CCN(C(=O)C2CC2)CC1 [Olaparib, reference compound] | – | – | – | 1.1 ± 1.4 | – | – | – | – | – |
| COc1cc(OC)c2c(=O)[nH]c(-c3ccc(C(N)=O)cc3)nc2c1 [Compound 5c, 4-(5,7-Dimethoxy-4-oxo-3,4-dihydroquinazolin-2-yl)benzamide] | 1 | 0 | 18 | – | 2 | – | – | – | – |
| CNC(=O)c1ccc(-c2nc3cc(OC)cc(OC)c3c(=O)[nH]2)cc1 [Compound 5a, 4-(5,7-Dimethoxy-4-oxo-3,4-dihydroquinazolin-2-yl)-N-methylbenzamide] | 1 | 4 | 36 | – | 25 | – | – | – | – |
| COc1cc(OC)c2c(=O)[nH]c(-c3cccc4nc[nH]c34)nc2c1 [Compound 5k, 2-(1H-Benzo[d]imidazole-7-yl)-5,7-dimethoxyquinazolin-4(3H)-one] | 8 | 6 | 42 | – | 39 | – | – | – | – |
| O=c1[nH]c(-c2cccc3nc[nH]c23)nc2ccccc12 [Compound 5h, 2-(1H-Benzo[d]imidazole-7-yl)quinazolin-4(3H)-one] | 0 | 3 | 11 | – | 10 | – | – | – | – |
| COc1cc(OC)c2c(=O)[nH]c(-c3ccc(N4CCOCC4)cc3)nc2c1 [Compound 5e, 5,7-Dimethoxy-2-(4-morpholinophenyl)quinazolin-4(3H)-one] | 12 | 2 | 70 | – | 36 | – | – | – | – |
| COc1cc(OC)c2c(=O)[nH]c(-c3ccc4cc[nH]c4c3)nc2c1 [Compound 5g, 2-(1H-Indol-6-yl)-5,7-dimethoxyquinazolin-4(3H)-one] | 3 | 9 | 13 | – | 34 | – | – | – | – |
| CNC(=O)c1ccc(-c2nc3ccccc3c(=O)[nH]2)cc1 [Compound 5b, N-Methyl-4-(4-oxo-3,4-dihydroquinazolin-2-yl)benzamide] | 0 | 0 | 22 | – | 15 | – | – | – | – |
| O=c1[nH]c(-c2c[nH]c3ncccc23)nc2ccccc12 [Compound 5j, 2-(1H-Pyrrolo[2,3-b]pyridin-3-yl)quinazolin-4(3H)-one] | 6 | – | – | – | – | – | – | – | – |
| NC(=O)c1ccc(-c2nc3ccccc3c(=O)[nH]2)cc1 [Compound 5d, 4-(4-Oxo-3,4-dihydroquinazolin-2-yl)benzamide] | 2 | 0 | 19 | – | 1 | – | – | – | – |

Next, values leading:

| inhibition at 1 µM [1] [%] | inhibition at 1 µM (PARP1) [%] | inhibition at 10 µM [1] [%] | IC50 (MDA-MB-468 cells) [µM] | inhibition at 10 µM (PARP1) [%] | Inhibition rate BRD4 ([1]; 1 μmol/L) [%] | Inhibition rate BRD4 ([1]; 10 μmol/L) [%] | Inhibition rate PARP1 (PARP1; 1 μmol/L) [%] | Inhibition rate PARP1 (PARP1; 10 μmol/L) [%] | Compound |
| --- | --- | --- | --- | --- | --- | --- | --- | --- | --- |
| 9 | 7 | – | – | – | – | – | – | – | COc1cccc2nc(-c3ccc(C(=O)N4CCN(C(=O)C5CC5)CC4)cc3F)[nH]c(=O)c12 [Compound 15e, 2-(4-(4-(Cyclopropanecarbonyl)piperazine-1-carbonyl)-2-fluorophenyl)-5-methoxyquinazolin-4(3H)-one] |
| 15 | 7 | 46 | > 30 | 11 | – | – | – | – | COc1cc(OC)c2c(=O)[nH]c(-c3cc(C)c(OCCOc4ccc5cn[nH]c5c4)c(C)c3)nc2c1 [Compound 19m, 2-(4-(2-((1H-Indazol-6-yl)oxy)ethoxy)-3,5-dimethylphenyl)-5,7-dimethoxyquinazolin-4(3H)-one] |
| 4 | 6 | 50 | – | 57 | – | – | – | – | COc1cc(OC)c2c(=O)[nH]c(-c3cccc(C(=O)N4CCN(C(=O)C5CC5)CC4)c3)nc2c1 [Compound 11a, 2-(3-(4-(Cyclopropanecarbonyl)piperazine-1-carbonyl)phenyl)-5,7-dimethoxyquinazolin-4(3H)-one] |
| 12 | 16 | 43 | – | 70 | – | – | – | – | O=C(c1cccc(-c2nc3ccccc3c(=O)[nH]2)c1)N1CCN(C(=O)C2CC2)CC1 [Compound 11b, 2-(3-(4-(Cyclopropanecarbonyl)piperazine-1-carbonyl)phenyl)quinazolin-4(3H)-one] |
| 12 | 31 | 62 | 11.8 ± 3.4 | 65 | – | – | – | – | COc1cc(OC)c2c(=O)[nH]c(-c3ccc(OCCOc4ccccc4C(N)=O)c(F)c3)nc2c1 [Compound 19h, 2-(2-(4-(5,7-Dimethoxy-4-oxo-3,4-dihydroquinazolin-2-yl)-2-fluorophenoxy)ethoxy)benzamide] |
| 14 | 9 | 45 | > 30 | 16 | – | – | – | – | COc1cc(OC)c2c(=O)[nH]c(-c3cc(OC)c(OCCOc4ccc5cn[nH]c5c4)c(OC)c3)nc2c1 [Compound 19n, 2-(4-(2-((1H-Indazol-6-yl)oxy)ethoxy)-3,5-dimethoxyphenyl)-5,7-dimethoxyquinazolin-4(3H)-one] |
| 29 | 19 | 60 | – | 51 | – | – | – | – | COc1cc(OC)c2c(=O)[nH]c(-c3ccc(OCOc4ccccc4C(N)=O)cc3)nc2c1 [Compound 19v, 2-((4-(5,7-Dimethoxy-4-oxo-3,4-dihydroquinazolin-2-yl)phenoxy)methoxy)benzamide] |
| 29 | 1 | 80 | 23.7 ± 3.3 | 14 | – | – | – | – | COc1cc(OC)c2c(=O)[nH]c(-c3ccc(OCCOn4nnc5ccccc54)c(F)c3)nc2c1 [Compound 19l, 2-(4-(2-((1H-Benzo[d][1,2,3]triazol-1-yl)oxy)ethoxy)-3-fluorophenyl)-5,7-dimethoxyquinazolin-4(3H)-one] |
| 31 | 30 | 90 | 6 ± 0.9 | 85 | – | – | – | – | COc1cc(OC)c2c(=O)[nH]c(-c3cc(Cl)ccc3OCCOc3ccccc3C(N)=O)nc2c1 [Compound 19a, 2-(2-(4-Chloro-2-(5,7-dimethoxy-4-oxo-3,4-dihydroquinazolin-2-yl)phenoxy)ethoxy)benzamide] |
| – | – | – | – | – | 4 | 41 | 18 | 71 | 2-(4-((4-(Cyclopropanecarbonyl)piperazin-1-yl)methyl)phenyl)quinazolin-4(3H)-one [Compound 11d] |
| 4 | 6 | 53 | – | ≤ 87 | – | – | – | – | O=C(c1ccc(-c2nc3ccccc3c(=O)[nH]2)c(F)c1)N1CCN(C(=O)C2CC2)CC1 [Compound 15b, 2-(4-(4-(Cyclopropanecarbonyl)piperazine-1-carbonyl)-2-fluorophenyl)quinazolin-4(3H)-one] |
| – | – | – | – | – | 9 | 47 | 8 | 60 | 2-(4-((4-(Cyclopropanecarbonyl)piperazin-1-yl)methyl)phenyl)-5,7-dimethoxyquinazolin-4(3H)-one [Compound 11c] |
| 8 | 4 | 30 | – | 46 | – | – | – | – | COc1cccc2nc(-c3cccc(C(=O)N4CCN(C(=O)C5CC5)CC4)c3)[nH]c(=O)c12 [Compound 11e, 2-(3-(4-(Cyclopropanecarbonyl)piperazine-1-carbonyl)phenyl)-5-methoxyquinazolin-4(3H)-one] |
| 5 | 11 | 30 | – | 55 | – | – | – | – | COc1cc(OC)c2c(=O)[nH]c(-c3ccc(C(=O)N4CCn5c(nnc5C(F)(F)F)C4)cc3F)nc2c1 [Compound 15c, 2-(2-Fluoro-4-(3-(trifluoromethyl)-5,6,7,8-tetrahydro-[1,2,4]triazolo[4,3-a]pyrazine-7-carbonyl)phenyl)-5,7-dimethoxyquinazolin-4(3H)-one] |
| 7 | 14 | 68 | – | 72 | – | – | – | – | COc1cc(OC)c2c(=O)[nH]c(-c3ccc(C(=O)N4CCN(C(=O)C5CC5)CC4)cc3F)nc2c1 [Compound 15a, 2-(4-(4-(Cyclopropanecarbonyl)piperazine-1-carbonyl)-2-fluorophenyl)-5,7-dimethoxyquinazolin-4(3H)-one] |
| 3 | – | 18 | – | 60 | – | – | – | – | O=C(c1ccc(-c2nc3ccccc3c(=O)[nH]2)c(F)c1)N1CCn2c(nnc2C(F)(F)F)C1 [Compound 15d, 2-(2-Fluoro-4-(3-(trifluoromethyl)-5,6,7,8-tetrahydro-[1,2,4]triazolo[4,3-a]pyrazine-7-carbonyl)phenyl)quinazolin-4(3H)-one] |
